From PubChem BioAssay AID256 (DTP/NCI, 2004) come the findings set out here.

The assay deals with CD2F1 mice, L1210 leukemia ip, survival T/C. The assay is described as follows: NCI In Vivo Anticancer Drug Screen. Data for tumor model L1210 Leukemia (intraperitoneal) in CD2F1 (CDF1) mice. The settings on record: higher = longer survival. The essentials:
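Ratio T/C, where T is the treated-group value and C the vehicle-dosed control value, from mice implanted with a transplantable tumor.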

“And” between values parts separate entries of the source, which are not always exact repeats. Identical values can stand only once. Toxic doses and inconclusive results are not listed.

Take `CO/N=C/[C@@H](CO)O[C@H](/C=N/OC)n1cnc2c(N)ncnc21`: the T/C by setting is: (endpoint: median survival time, dose: 12.5 mg/kg/injection, schedule: Q01DX005 (ip), vehicle: distilled water + Tween-80) 97 % of control; (endpoint: median survival time, dose: 25.0 mg/kg/injection, schedule: Q01DX005 (ip), vehicle: distilled water + Tween-80) 100 % of control; (endpoint: median survival time, dose: 50.0 mg/kg/injection, schedule: Q01DX005 (ip), vehicle: distilled water + Tween-80) 97 % of control; (endpoint: median survival time, dose: 100.0 mg/kg/injection, schedule: Q01DX005 (ip), vehicle: distilled water + Tween-80) 96 % of control; (endpoint: median survival time, dose: 200.0 mg/kg/injection, schedule: Q01DX005 (ip), vehicle: distilled water + Tween-80) 100 % of control.
As for `O=Cc1ccccc1`, the T/C was 101 % of control (endpoint: mean survival time, dose: 12.5 mg/kg/injection, schedule: Q01DX009 (ip), vehicle: Klucel (hydroxypropylcellulose) (HPC)); 95 % of control and 102 % of control (endpoint: mean survival time, dose: 25.0 mg/kg/injection, schedule: Q01DX009 (ip), vehicle: Klucel (hydroxypropylcellulose) (HPC)); 96 % of control and 100 % of control (endpoint: mean survival time, dose: 50.0 mg/kg/injection, schedule: Q01DX009 (ip), vehicle: Klucel (hydroxypropylcellulose) (HPC)); 97 % of control and 102 % of control (endpoint: mean survival time, dose: 100.0 mg/kg/injection, schedule: Q01DX009 (ip), vehicle: Klucel (hydroxypropylcellulose) (HPC)); 97 % of control and 105 % of control (endpoint: mean survival time, dose: 200.0 mg/kg/injection, schedule: Q01DX009 (ip), vehicle: Klucel (hydroxypropylcellulose) (HPC)); 92 % of control and 93 % of control (endpoint: mean survival time, dose: 400.0 mg/kg/injection, schedule: Q01DX009 (ip), vehicle: Klucel (hydroxypropylcellulose) (HPC)).
`CCN(CC)c1cc(Cl)ccc1Cl`: the T/C is 102 % of control (endpoint: mean survival time, dose: 25.0 mg/kg/injection, schedule: Q01DX009 (ip), vehicle: saline); 91 % of control (endpoint: mean survival time, dose: 25.0 mg/kg/injection, schedule: Q04DX002 (ip), vehicle: saline with Tween-80); 101 % of control (endpoint: mean survival time, dose: 50.0 mg/kg/injection, schedule: Q01DX009 (ip), vehicle: saline); 95 % of control (endpoint: mean survival time, dose: 50.0 mg/kg/injection, schedule: Q04DX002 (ip), vehicle: saline with Tween-80); 98 % of control (endpoint: mean survival time, dose: 100.0 mg/kg/injection, schedule: Q01DX001 (ip), vehicle: saline with Tween-80); 101 % of control (endpoint: mean survival time, dose: 100.0 mg/kg/injection, schedule: Q01DX009 (ip), vehicle: saline).
For the compound `O=[Te]=O`, the T/C by setting is: (endpoint: median survival time, dose: 3.12 mg/kg/injection, schedule: Q01DX009 (ip), vehicle: saline) 100 % of control; (endpoint: median survival time, dose: 6.25 mg/kg/injection, schedule: Q01DX009 (ip), vehicle: saline) 98 % of control; (endpoint: median survival time, dose: 10.0 mg/kg/injection, schedule: Q01DX009 (ip), vehicle: saline) 101 % of control; (endpoint: median survival time, dose: 12.5 mg/kg/injection, schedule: Q01DX009 (ip), vehicle: saline) 100 % of control; (endpoint: median survival time, dose: 20.0 mg/kg/injection, schedule: Q01DX009 (ip), vehicle: saline) 97 % of control.
Turning to `O=C(O)/C=C\C(=O)Nc1ccccn1`, the T/C is, setting by setting: (endpoint: mean survival time, dose: 5.0 mg/kg/injection, schedule: Q01DX009 (ip), vehicle: saline) 94 % of control; (endpoint: mean survival time, dose: 5.0 mg/kg/injection, schedule: Q04DX003 (ip), vehicle: saline) 105 % of control and 106 % of control; (endpoint: mean survival time, dose: 10.0 mg/kg/injection, schedule: Q01DX009 (ip), vehicle: saline) 92 % of control; (endpoint: mean survival time, dose: 10.0 mg/kg/injection, schedule: Q04DX003 (ip), vehicle: saline) 97 % of control and 105 % of control; (endpoint: mean survival time, dose: 20.0 mg/kg/injection, schedule: Q04DX003 (ip), vehicle: saline) 97 % of control and 98 % of control; (endpoint: mean survival time, dose: 30.0 mg/kg/injection, schedule: Q01DX009 (ip), vehicle: saline) 100 % of control. For the same compound, under “endpoint: mean survival time, dose: 60.0 mg/kg/injection, schedule: Q01DX009 (ip), vehicle: saline”, the T/C was 105 % of control.
For the compound `CC1=NN(c2ccccc2)C(=O)/C1=C/N(C)C`, the T/C was 103 % of control (endpoint: mean survival time, dose: 3.13 mg/kg/injection, schedule: Q01DX009 (ip), vehicle: saline with Tween-80); 97 % of control (endpoint: mean survival time, dose: 6.25 mg/kg/injection, schedule: Q01DX009 (ip), vehicle: saline with Tween-80); 95 % of control (endpoint: mean survival time, dose: 6.25 mg/kg/injection, schedule: Q04DX003 (ip), vehicle: saline with Tween-80); 100 % of control (endpoint: mean survival time, dose: 12.5 mg/kg/injection, schedule: Q01DX009 (ip), vehicle: saline with Tween-80); 90 % of control (endpoint: mean survival time, dose: 12.5 mg/kg/injection, schedule: Q04DX003 (ip), vehicle: saline with Tween-80).
In the case of `COc1ccc(NC(=O)Nc2ccc(C(C)C)cc2)cc1`, the T/C runs as follows: (endpoint: mean survival time, dose: 100.0 mg/kg/injection, schedule: Q04DX003 (ip), vehicle: saline with Tween-80) 93 % of control; (endpoint: mean survival time, dose: 200.0 mg/kg/injection, schedule: Q04DX003 (ip), vehicle: saline with Tween-80) 91 % of control; (endpoint: mean survival time, dose: 400.0 mg/kg/injection, schedule: Q04DX003 (ip), vehicle: saline with Tween-80) 95 % of control.
Take `CCCCNCC(=O)O[C@]1(CC)C(=O)OCc2c1cc1n(c2=O)Cc2cc3ccccc3nc2-1`: the T/C was 109 % of control (endpoint: median survival time, dose: 7.5 mg/kg/injection, schedule: Q04DX002 (ip), vehicle: saline); 150 % of control (endpoint: median survival time, dose: 7.5 mg/kg/injection, schedule: Q04HX004 (iv), vehicle: dextrose); 158 % of control (endpoint: median survival time, dose: 7.5 mg/kg/injection, schedule: Q04HX004 (iv), vehicle: other); 117 % of control and 124 % of control (endpoint: median survival time, dose: 15.0 mg/kg/injection, schedule: Q04DX002 (ip), vehicle: saline); 172 % of control (endpoint: median survival time, dose: 15.0 mg/kg/injection, schedule: Q04HX004 (iv), vehicle: dextrose); 186 % of control (endpoint: median survival time, dose: 15.0 mg/kg/injection, schedule: Q04HX004 (iv), vehicle: other). The T/C by setting is: (endpoint: median survival time, dose: 30.0 mg/kg/injection, schedule: Q04DX002 (ip), vehicle: saline) 158 % of control; (endpoint: median survival time, dose: 30.0 mg/kg/injection, schedule: Q04HX004 (iv), vehicle: dextrose) 218 % of control; (endpoint: median survival time, dose: 30.0 mg/kg/injection, schedule: Q04HX004 (iv), vehicle: other) 235 % of control; (endpoint: median survival time, dose: 40.0 mg/kg/injection, schedule: Q04HX004 (iv), vehicle: other) 247 % of control; (endpoint: median survival time, dose: 60.0 mg/kg/injection, schedule: Q04DX002 (ip), vehicle: saline) 195 % of control and 212 % of control.
`O=[P+](O)O[P+](=O)O.O=[P+](O)O[P+](=O)O.O=[P+](O)O[P+](=O)O.O=[P+](O)O[P+](=O)O.[Pt].[Pt]`: the T/C (endpoint: median survival time, dose: 3.12 mg/kg/injection, schedule: Q04DX003 (ip), vehicle: saline) was 98 % of control; the T/C (endpoint: median survival time, dose: 6.25 mg/kg/injection, schedule: Q04DX003 (ip), vehicle: saline) was 98 % of control; the T/C (endpoint: median survival time, dose: 12.5 mg/kg/injection, schedule: Q04DX003 (ip), vehicle: saline) was 96 % of control; the T/C (endpoint: median survival time, dose: 25.0 mg/kg/injection, schedule: Q04DX003 (ip), vehicle: saline) was 98 % of control; the T/C (endpoint: median survival time, dose: 50.0 mg/kg/injection, schedule: Q04DX003 (ip), vehicle: saline) was 105 % of control.
With `CC(=O)OCC1OC(n2ncc3c(Cl)ncnc32)C(OC(C)=O)C1OC(C)=O` (configuration not stated), the T/C was 93 % of control (endpoint: mean survival time, dose: 12.5 mg/kg/injection, schedule: Q01DX005 (ip), vehicle: water); 93 % of control (endpoint: mean survival time, dose: 25.0 mg/kg/injection, schedule: Q01DX005 (ip), vehicle: water); 101 % of control (endpoint: mean survival time, dose: 50.0 mg/kg/injection, schedule: Q01DX005 (ip), vehicle: water); 112 % of control (endpoint: mean survival time, dose: 100.0 mg/kg/injection, schedule: Q01DX005 (ip), vehicle: water); 103 % of control (endpoint: mean survival time, dose: 200.0 mg/kg/injection, schedule: Q01DX005 (ip), vehicle: water).
`Nc1ccc(CC(=O)Nc2ccc(S(=O)(=O)F)cc2)cc1`: the T/C (endpoint: mean survival time, dose: 100.0 mg/kg/injection, schedule: Q01DX001 (ip), vehicle: saline) was 102 % of control; the T/C (endpoint: mean survival time, dose: 200.0 mg/kg/injection, schedule: Q01DX001 (ip), vehicle: saline) was 103 % of control; the T/C (endpoint: mean survival time, dose: 400.0 mg/kg/injection, schedule: Q01DX001 (ip), vehicle: saline) is 105 % of control.
For `c1ccc(Cc2ccccn2)cc1`, the T/C reads like this: (endpoint: mean survival time, dose: 100.0 mg/kg/injection, schedule: Q04DX003 (ip), vehicle: water) 93 % of control; (endpoint: mean survival time, dose: 200.0 mg/kg/injection, schedule: Q04DX003 (ip), vehicle: water) 101 % of control; (endpoint: mean survival time, dose: 400.0 mg/kg/injection, schedule: Q04DX003 (ip), vehicle: water) 104 % of control.
`C/C(=N\Nc1ccccc1)C1=C(O)C(Cc2ccccc2)NC1=O` (configuration not stated): the T/C was 100 % of control (endpoint: mean survival time, dose: 100.0 mg/kg/injection, schedule: Q04DX002 (ip), vehicle: saline with Tween-80); 100 % of control (endpoint: mean survival time, dose: 200.0 mg/kg/injection, schedule: Q04DX002 (ip), vehicle: saline with Tween-80); 103 % of control (endpoint: mean survival time, dose: 400.0 mg/kg/injection, schedule: Q04DX002 (ip), vehicle: saline with Tween-80).
